Test results reported in US20240390295A1, “METHODS FOR TREATING DEPRESSION” (JANSSEN PHARMACEUTICA NV, priority 2020, published 2024).

Tested on: adult patients (aged 18-64 years) with TRD
Test: Maximum time to onset of clinician-reported adverse events by AE week 1/week 4 occurrence (Tables 5-16; modal dose 56, modal dose 84, Total)
Type: in vivo, human
Description: Patients were monitored for >90 minutes after ESK administration at each treatment session, after which time they could leave the clinical site at the clinician's discretion. AEs were monitored and reported, and safety assessments, including clinical laboratory tests and physical examinations, were conducted throughout the study. Clinician-reported AEs were categorized as mild, moderate, or severe based on clinical judgement (Table 1).
Since flexible dosing (ESK 56 or 84 mg) was permitted in the studies and an individual patient's doses could change within dosing timeframes, patients were stratified by modal dose during the respective periods.
The time to onset of the adverse events experienced by patients in Example 2 was analyzed. Tables 5-11 include the summary of specific adverse events by their respective categorized maximum time to Onset (i) across sessions 3-8 during Induction Phase by AE week 1 occurrence (Table 5), (ii) during Optimization Phase by AE week 1 occurrence (Table 6), (iii) during Optimization Phase by AE week 4 occurrence (Table 7), (iv) during Month 3-6 of Maintenance Phase by AE week 1 occurrence (Table 8), (v) Month 3-6 of Maintenance Phase by AE week 4 occurrence (Table 9), (vi) Month 6-12 of Maintenance Phase by AE week 1 occurrence (Table 10), and (vii) during Month 6-12 of Maintenance Phase by AE week 4 (Table 11).
Tables 12-16 include the incidences of clinician-reported blood pressure (Table 12), clinician-reported dissociation (Table 13), dizziness (Table 14), sedation (Table 15), and vertigo (Table 16) spanning week 1 to month 12 using the data of Example 2.

[1] = Based on Week 1, None, Month 3-6
[2] = Based on Week 1, None, Month 6-12
[3] = Based on Week 1, None, Weeks 2-4
[4] = Based on Week 1, Once, Month 3-6
[5] = Based on Week 1, Once, Month 6-12
[6] = Based on Week 1, Once, Weeks 2-4
[7] = Based on Week 1, Twice, Month 2
[8] = Based on Week 1, Twice, Month 3-6
[9] = Based on Week 1, Twice, Month 6-12
[10] = Based on Week 1, Twice, Weeks 2-4
[11] = Based on Week 1, incidence None, Month 2
[12] = Based on Week 1, incidence None, Month 3-6
[13] = Based on Week 1, incidence None, Month 6-12
[14] = Based on Week 1, incidence None, Weeks 2-4
[15] = Based on Week 1, incidence Once, Month 2
[16] = Based on Week 1, incidence Once, Month 3-6
[17] = Based on Week 1, incidence Once, Month 6-12
[18] = Based on Week 1, incidence Once, Weeks 2-4
[19] = Based on Week 1, incidence Twice, Month 2
[20] = Based on Week 1, incidence Twice, Month 3-6
[21] = Based on Week 1, incidence Twice, Month 6-12
[22] = Based on Week 1, incidence Twice, Weeks 2-4
[23] = Based on Week 4, None, Month 3-6

CN[C@]1(c2ccccc2Cl)CCCCC1=O [esketamine, (S)-2-(2-chlorophenyl)-2-(methylamino)cyclohexanone]
Blood Pressure (clinician): 0-30 m (Based on Week 1, None, Month 2): 1 | Blood Pressure (clinician): 31-60 m (Based on Week 1, None, Month 2): 12 | Blood Pressure (clinician): 61-90 m (Based on Week 1, None, Month 2): 2 | Blood Pressure (clinician): % >60 m (Based on Week 1, None, Month 2): 11.8% | Blood Pressure (clinician): TOTAL (Based on Week 1, None, Month 2): 17 | Blood Pressure (clinician): n >60 m (Based on Week 1, None, Month 2): 2 | Blood Pressure (clinician): 31-60 m [1]: 13 | Blood Pressure (clinician): 61-90 m [1]: 1 | Blood Pressure (clinician): % >60 m [1]: 5.9% | Blood Pressure (clinician): TOTAL [1]: 17 | Blood Pressure (clinician): n >60 m [1]: 1 | Blood Pressure (clinician): 31-60 m [2]: 8 | Blood Pressure (clinician): 61-90 m [2]: 1 | Blood Pressure (clinician): % >60 m [2]: 10% | Blood Pressure (clinician): TOTAL [2]: 10 | Blood Pressure (clinician): n >60 m [2]: 1 | Blood Pressure (clinician): 31-60 m [3]: 20 | Blood Pressure (clinician): 61-90 m [3]: 1 | Blood Pressure (clinician): % >60 m [3]: 4.8% | Blood Pressure (clinician): TOTAL [3]: 21 | Blood Pressure (clinician): n >60 m [3]: 1 | Blood Pressure (clinician): 31-60 m (Based on Week 1, Once, Month 2): 9 | Blood Pressure (clinician): % >60 m (Based on Week 1, Once, Month 2): 0% | Blood Pressure (clinician): TOTAL (Based on Week 1, Once, Month 2): 9 | Blood Pressure (clinician): n >60 m (Based on Week 1, Once, Month 2): 0 | Blood Pressure (clinician): 31-60 m [4]: 4 | Blood Pressure (clinician): % >60 m [4]: 0% | Blood Pressure (clinician): TOTAL [4]: 4 | Blood Pressure (clinician): n >60 m [4]: 0 | Blood Pressure (clinician): 31-60 m [5]: 1 | Blood Pressure (clinician): % >60 m [5]: 0% | Blood Pressure (clinician): TOTAL [5]: 1 | Blood Pressure (clinician): n >60 m [5]: 0 | Blood Pressure (clinician): 0-30 m [6]: 1 | Blood Pressure (clinician): 31-60 m [6]: 11 | Blood Pressure (clinician): 61-90 m [6]: 1 | Blood Pressure (clinician): % >60 m [6]: 7.7% | Blood Pressure (clinician): TOTAL [6]: 13 | Blood Pressure (clinician): n >60 m [6]: 1 | Blood Pressure (clinician): 31-60 m [7]: 10 | Blood Pressure (clinician): % >60 m [7]: 0% | Blood Pressure (clinician): TOTAL [7]: 10 | Blood Pressure (clinician): n >60 m [7]: 0 | Blood Pressure (clinician): 31-60 m [8]: 3 | Blood Pressure (clinician): 61-90 m [8]: 1 | Blood Pressure (clinician): % >60 m [8]: 25% | Blood Pressure (clinician): TOTAL [8]: 4 | Blood Pressure (clinician): n >60 m [8]: 1 | Blood Pressure (clinician): 31-60 m [9]: 2 | Blood Pressure (clinician): % >60 m [9]: 0% | Blood Pressure (clinician): TOTAL [9]: 2 | Blood Pressure (clinician): n >60 m [9]: 0 | Blood Pressure (clinician): 31-60 m [10]: 12 | Blood Pressure (clinician): 61-90 m [10]: 1 | Blood Pressure (clinician): % >60 m [10]: 14.2% | Blood Pressure (clinician): >90 m [10]: 1 | Blood Pressure (clinician): TOTAL [10]: 14 | Blood Pressure (clinician): n >60 m [10]: 2 | Dissociation (clinician), % >60 m [11]: 0% | Dizziness, % >60 m [11]: 3.7% | Sedation, % >60 m [11]: 0% | Vertigo, % >60 m [11]: 4.2% | Dissociation (clinician), % >60 m [12]: 2.8% | Dizziness, % >60 m [12]: 2.9% | Sedation, % >60 m [12]: 11.8% | Vertigo, % >60 m [12]: 16.7% | Dissociation (clinician), % >60 m [13]: 4.5% | Dizziness, % >60 m [13]: 0% | Sedation, % >60 m [13]: 0% | Vertigo, % >60 m [13]: 11.1% | Dissociation (clinician), % >60 m [14]: 0% | Dizziness, % >60 m [14]: 4.3% | Sedation, % >60 m [14]: 15.8% | Vertigo, % >60 m [14]: 11.1% | Dissociation (clinician), % >60 m [15]: 4% | Dizziness, % >60 m [15]: 6.1% | Sedation, % >60 m [15]: 0% | Vertigo, % >60 m [15]: 15.8% | Dissociation (clinician), % >60 m [16]: 0% | Dizziness, % >60 m [16]: 0% | Sedation, % >60 m [16]: 0% | Sedation, patients by time to onset [16]: 0 | Vertigo, % >60 m [16]: 16.7% | Dissociation (clinician), % >60 m [17]: 0% | Dizziness, % >60 m [17]: 0% | Sedation, % >60 m [17]: 0% | Sedation, patients by time to onset [17]: 0 | Vertigo, % >60 m [17]: 0% | Dissociation (clinician), % >60 m [18]: 7.3% | Dizziness, % >60 m [18]: 5.4% | Sedation, % >60 m [18]: 57.1% | Vertigo, % >60 m [18]: 10.3% | Dissociation (clinician), % >60 m [19]: 0% | Dizziness, % >60 m [19]: 5.5% | Sedation, % >60 m [19]: 0% | Vertigo, % >60 m [19]: 0% | Dissociation (clinician), % >60 m [20]: 3% | Dizziness, % >60 m [20]: 2.9% | Sedation, % >60 m [20]: 0% | Vertigo, % >60 m [20]: 4% | Dissociation (clinician), % >60 m [21]: 0% | Dizziness, % >60 m [21]: 7.1% | Sedation, % >60 m [21]: 0% | Vertigo, % >60 m [21]: 0% | Dissociation (clinician), % >60 m [22]: 6.3% | Dizziness, % >60 m [22]: 7.9% | Sedation, % >60 m [22]: 16.7% | Vertigo, % >60 m [22]: 4.6% | Blood Pressure (clinician): 0-30 m (Based on Week 4, None, Month 2): 1 | Blood Pressure (clinician): 31-60 m (Based on Week 4, None, Month 2): 13 | Blood Pressure (clinician): 61-90 m (Based on Week 4, None, Month 2): 2 | Blood Pressure (clinician): % >60 m (Based on Week 4, None, Month 2): 11.1% | Blood Pressure (clinician): TOTAL (Based on Week 4, None, Month 2): 18 | Blood Pressure (clinician): n >60 m (Based on Week 4, None, Month 2): 2 | Blood Pressure (clinician): 31-60 m [23]: 13 | Blood Pressure (clinician): 61-90 m [23]: 1 | Blood Pressure (clinician): % >60 m [23]: 5.9% | Blood Pressure (clinician): TOTAL [23]: 17
